Values belong to the molecule of their own block, whether it stands above or below them. The source made the active and inactive calls.
Key:
DLD-1 = test: DLD-1 cell viability reduction – luminescence, round 1, cytotoxicity control for KLF5 inhibitor project, late-stage follow-up (AID 485338); type: functional, cell-based; details: Homo sapiens
[1] = Luminescence-based counterscreen assay for KLF5 inhibitors: dose response cell-based high throughput screening assay to identify cytotoxic compounds using the IEC-6 intestinal epithelial cell line. [Related pubchem assays: 1700 (Primary screen.), 1834 (Confirmation screen.), 1858 (Summary AID.), 1905 (Counterscreen.)]; type: functional
[2] = molecular target: G-protein coupled receptor 55 (Homo sapiens, UniProt Q9Y2T6); test: selective activators of receptor GPR55 – imaging, U2OS cells, beta-arrestin-GFP redistribution, primary screen (AID 1961); type: functional
G-protein coupled receptor 55, sequence (Q9Y2T6 whole entry): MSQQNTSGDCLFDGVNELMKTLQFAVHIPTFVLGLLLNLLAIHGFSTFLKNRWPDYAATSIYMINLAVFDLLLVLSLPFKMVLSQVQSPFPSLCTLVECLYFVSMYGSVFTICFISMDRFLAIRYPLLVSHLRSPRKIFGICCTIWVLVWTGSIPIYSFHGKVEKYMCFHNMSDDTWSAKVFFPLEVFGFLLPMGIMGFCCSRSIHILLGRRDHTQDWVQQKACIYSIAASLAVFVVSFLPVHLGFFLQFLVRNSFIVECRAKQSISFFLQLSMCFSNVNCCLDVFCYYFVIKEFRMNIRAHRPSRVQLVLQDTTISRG

[3] = molecular target: T1, Tyrosine-protein phosphatase non-receptor type 22 (Homo sapiens, UniProt Q9Y2R2); test: inhibition of lymphoid tyrosine phosphatase LYP – biochemical, pCAP fluorogenic substrate, fluorescence, set 3, SAR follow-up (AID 449727); type: functional
T1 sequence (Q9Y2R2 whole entry): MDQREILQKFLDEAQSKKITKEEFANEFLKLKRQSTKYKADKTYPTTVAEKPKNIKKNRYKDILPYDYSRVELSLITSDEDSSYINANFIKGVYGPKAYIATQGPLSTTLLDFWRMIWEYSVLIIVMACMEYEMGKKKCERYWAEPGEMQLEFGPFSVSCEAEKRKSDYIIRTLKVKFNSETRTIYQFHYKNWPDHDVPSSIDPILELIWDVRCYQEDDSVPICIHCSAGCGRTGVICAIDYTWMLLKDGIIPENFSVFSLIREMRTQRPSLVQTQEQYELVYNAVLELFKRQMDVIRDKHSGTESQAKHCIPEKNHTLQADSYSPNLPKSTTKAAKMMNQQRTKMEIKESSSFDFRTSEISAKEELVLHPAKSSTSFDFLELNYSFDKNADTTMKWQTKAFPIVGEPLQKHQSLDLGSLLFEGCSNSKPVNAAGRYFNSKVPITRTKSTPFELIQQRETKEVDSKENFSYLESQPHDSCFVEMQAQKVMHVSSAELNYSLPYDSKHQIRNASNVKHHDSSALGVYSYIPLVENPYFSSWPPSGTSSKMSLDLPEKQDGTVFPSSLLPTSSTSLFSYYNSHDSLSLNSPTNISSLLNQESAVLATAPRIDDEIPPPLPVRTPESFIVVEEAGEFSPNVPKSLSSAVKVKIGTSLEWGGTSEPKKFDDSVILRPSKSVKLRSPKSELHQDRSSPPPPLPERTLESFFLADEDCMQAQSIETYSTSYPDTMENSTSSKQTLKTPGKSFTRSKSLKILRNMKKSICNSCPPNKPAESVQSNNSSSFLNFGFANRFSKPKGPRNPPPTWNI

[4] = molecular target: Tyrosine-protein phosphatase non-receptor type 12 (Homo sapiens, UniProt Q05209); test: SAR Selectivity Analysis of small molecule inhibitors of PEST using pCAP in a fluorescence assay. [Related pubchem assays (depositor defined):AID1779, AID1784, AID2135]; type: functional
[5] = molecular target: T1, Tyrosine-protein phosphatase non-receptor type 22; test: SAR LYP1 Fluorescent Assay using OMFP substrate for In Vitro dose response studies - Set 3. [Related pubchem assays (depositor defined):AID1779, AID1784, AID2140, AID2686]; type: functional
T-cell = test: loss of vesicle association with mouse CD8+ T cells – mouse 2C CD8+ T cells, flow cytometry, dose response (AID 485284); type: functional
Integrin alpha-L = Integrin alpha-L (Mus musculus, UniProt P24063); test: modulators of CD8 T cell-vesicle binding, dose response, powder samples, mouse 2C CD8+ cells (AID 504565); type: functional
Hexokinase = Hexokinase (Trypanosoma brucei, UniProt Q38C41); test: Confirmation assay for inhibitors of Trypanosoma brucei hexokinase 1-Analogue-first series. [Related pubchem assays (depositor defined):AID1430, AID1632, AID2516, AID2560, AID2579, AID2600, AID449725, AID492951]; type: functional
Hexokinase, sequence (Q38C41 whole entry): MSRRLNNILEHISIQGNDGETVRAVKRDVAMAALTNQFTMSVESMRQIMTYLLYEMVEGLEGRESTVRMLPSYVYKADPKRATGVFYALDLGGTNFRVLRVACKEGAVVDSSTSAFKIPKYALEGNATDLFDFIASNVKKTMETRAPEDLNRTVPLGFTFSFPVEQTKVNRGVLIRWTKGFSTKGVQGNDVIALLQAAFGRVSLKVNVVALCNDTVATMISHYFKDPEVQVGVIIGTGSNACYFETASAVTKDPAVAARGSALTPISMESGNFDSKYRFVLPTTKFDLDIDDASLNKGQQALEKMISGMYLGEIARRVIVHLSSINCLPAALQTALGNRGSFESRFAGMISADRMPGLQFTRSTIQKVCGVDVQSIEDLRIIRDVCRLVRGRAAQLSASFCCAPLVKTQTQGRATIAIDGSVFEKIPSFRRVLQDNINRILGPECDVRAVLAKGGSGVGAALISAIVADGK

[6] = molecular target: Glucose-6-phosphate 1-dehydrogenase (Homo sapiens, UniProt P11413); test: inhibition of Homo sapiens G6PD, dose series – biochemical, fluorescence, selectivity assay for P. falciparum G6PD inhibitor project, dose response (AID 504792); type: functional
Glucose-6-phosphate 1-dehydrogenase, sequence (P11413 whole entry, the tested form may be a part): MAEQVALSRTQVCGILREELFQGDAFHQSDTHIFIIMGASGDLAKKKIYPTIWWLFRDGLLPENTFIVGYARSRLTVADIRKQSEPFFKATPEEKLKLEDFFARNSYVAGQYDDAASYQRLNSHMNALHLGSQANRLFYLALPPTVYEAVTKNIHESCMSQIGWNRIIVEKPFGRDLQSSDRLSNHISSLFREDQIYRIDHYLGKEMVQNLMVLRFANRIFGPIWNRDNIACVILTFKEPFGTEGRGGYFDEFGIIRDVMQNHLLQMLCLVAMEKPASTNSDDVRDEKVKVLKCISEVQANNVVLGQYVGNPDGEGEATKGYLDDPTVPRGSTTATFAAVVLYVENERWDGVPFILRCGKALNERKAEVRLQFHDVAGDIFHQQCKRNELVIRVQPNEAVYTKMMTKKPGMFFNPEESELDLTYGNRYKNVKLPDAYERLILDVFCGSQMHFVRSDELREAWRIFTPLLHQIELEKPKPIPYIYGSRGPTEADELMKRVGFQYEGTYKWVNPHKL

[7] = Fluorescence-based cell-based high throughput dose response assay for inhibitors of the interaction of nucleotide-binding oligomerization domain containing 2 (NOD2) and the receptor-interacting serine-threonine kinase 2 (RIPK2).; type: functional; details: Homo sapiens
Beta Lactamase = Beta Lactamase (Pseudomonas aeruginosa, UniProt Q932Y6); test: BLA reporter interference, concentration series – BLA reporter cells, FRET fluorescence, artefact control for NOD2-RIPK2 interaction inhibitor project, dose response (AID 651552); type: functional, cell-based
Beta Lactamase, sequence (Q932Y6 whole entry): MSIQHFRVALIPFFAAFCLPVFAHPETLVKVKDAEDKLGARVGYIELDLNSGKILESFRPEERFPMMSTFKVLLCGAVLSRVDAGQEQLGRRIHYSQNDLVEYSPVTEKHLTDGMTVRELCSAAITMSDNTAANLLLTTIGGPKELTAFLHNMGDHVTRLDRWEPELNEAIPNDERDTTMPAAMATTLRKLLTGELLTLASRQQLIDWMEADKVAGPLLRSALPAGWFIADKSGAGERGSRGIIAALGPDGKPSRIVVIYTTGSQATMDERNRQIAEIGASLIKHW

ORF 73 = molecular target: T2, ORF 73 (Human herpesvirus 8, UniProt O40947); test: KSHV LANA DNA-binding disruption – biochemical, fluorescence polarization, cherry-picked samples, dose response (AID 504725); design: species or system Human gammaherpesvirus 8;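 also: fluorescence polarization of a labeled DNA duplex reporting LANA DNA binding; potency is for inhibitors that block LANA binding to the DNA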
T2 sequence (O40947 whole entry): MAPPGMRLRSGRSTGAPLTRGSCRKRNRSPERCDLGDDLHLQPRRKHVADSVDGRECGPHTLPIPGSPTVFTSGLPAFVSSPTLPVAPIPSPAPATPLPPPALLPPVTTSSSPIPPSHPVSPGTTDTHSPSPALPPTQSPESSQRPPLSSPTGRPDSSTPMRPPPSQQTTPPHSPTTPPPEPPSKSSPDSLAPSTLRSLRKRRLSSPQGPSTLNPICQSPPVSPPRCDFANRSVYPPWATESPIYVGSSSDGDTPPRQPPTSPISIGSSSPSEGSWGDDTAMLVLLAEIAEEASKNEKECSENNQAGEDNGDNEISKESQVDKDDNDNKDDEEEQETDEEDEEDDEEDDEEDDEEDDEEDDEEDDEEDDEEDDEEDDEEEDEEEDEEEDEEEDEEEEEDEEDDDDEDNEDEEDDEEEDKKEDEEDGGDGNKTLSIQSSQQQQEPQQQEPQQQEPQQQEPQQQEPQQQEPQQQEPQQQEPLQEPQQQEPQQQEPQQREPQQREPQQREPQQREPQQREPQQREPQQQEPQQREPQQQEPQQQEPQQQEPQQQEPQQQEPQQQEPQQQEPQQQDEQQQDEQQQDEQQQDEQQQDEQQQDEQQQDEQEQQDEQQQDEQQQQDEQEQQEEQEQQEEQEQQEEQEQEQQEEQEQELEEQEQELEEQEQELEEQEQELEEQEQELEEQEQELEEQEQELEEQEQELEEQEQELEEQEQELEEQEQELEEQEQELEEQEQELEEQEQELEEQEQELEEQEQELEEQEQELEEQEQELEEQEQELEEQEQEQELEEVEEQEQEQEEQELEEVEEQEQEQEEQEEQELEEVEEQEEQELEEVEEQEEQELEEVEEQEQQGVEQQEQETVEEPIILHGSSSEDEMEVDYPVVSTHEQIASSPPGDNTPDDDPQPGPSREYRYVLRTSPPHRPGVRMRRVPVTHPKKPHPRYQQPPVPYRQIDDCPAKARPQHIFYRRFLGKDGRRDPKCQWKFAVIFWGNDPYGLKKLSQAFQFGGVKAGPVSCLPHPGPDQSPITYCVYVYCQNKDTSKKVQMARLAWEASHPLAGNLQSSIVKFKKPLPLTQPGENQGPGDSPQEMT

[8] = molecular target: T3, Small ubiquitin-related modifier 1 (Homo sapiens, UniProt P63165); test: SUMO1 protein interaction blockers, potency – biochemical, fluorescence polarization, uHTS hits, dose response (AID 624382); type: functional; details: read-out: IC50_Mean
T3 sequence (P63165 whole entry): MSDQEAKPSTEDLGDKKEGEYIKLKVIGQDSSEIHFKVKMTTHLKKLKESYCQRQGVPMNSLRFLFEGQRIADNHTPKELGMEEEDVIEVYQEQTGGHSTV

[9] = molecular target: T3, Small ubiquitin-related modifier 1; test: SUMO1 protein-protein binding blockers, potency – biochemical, FRET, dose response (AID 624383); type: functional; details: read-out: IC50_Mean
[10] = molecular target: T4, Rac GTPase-activating protein 1 (Homo sapiens, UniProt Q9H0H5); test: blockers of MgcRacGAP-driven Rac1 GTP hydrolysis – biochemical, ADP Hunter fluorescence, primary and confirmatory, confirmation (AID 624330); type: functional
T4 sequence (Q9H0H5 whole entry): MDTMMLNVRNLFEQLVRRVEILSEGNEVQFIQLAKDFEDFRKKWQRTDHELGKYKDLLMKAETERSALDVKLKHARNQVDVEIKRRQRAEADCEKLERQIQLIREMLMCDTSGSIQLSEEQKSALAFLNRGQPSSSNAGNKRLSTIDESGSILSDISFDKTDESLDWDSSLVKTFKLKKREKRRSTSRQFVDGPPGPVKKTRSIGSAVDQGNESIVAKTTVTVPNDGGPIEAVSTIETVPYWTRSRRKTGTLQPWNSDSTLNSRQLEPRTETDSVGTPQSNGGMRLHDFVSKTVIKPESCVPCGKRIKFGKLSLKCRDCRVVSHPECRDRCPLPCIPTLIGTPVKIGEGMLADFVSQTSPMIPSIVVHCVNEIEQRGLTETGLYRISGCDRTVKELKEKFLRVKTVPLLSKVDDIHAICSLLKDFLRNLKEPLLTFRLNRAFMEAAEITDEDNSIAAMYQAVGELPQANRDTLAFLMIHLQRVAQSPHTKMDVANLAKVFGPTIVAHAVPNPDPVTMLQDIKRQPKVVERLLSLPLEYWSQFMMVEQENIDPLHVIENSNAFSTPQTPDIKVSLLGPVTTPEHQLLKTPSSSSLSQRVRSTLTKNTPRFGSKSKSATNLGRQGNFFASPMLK

Salmon testes DNA = test: acridine orange-DNA binding displacement – biochemical, fluorescence polarization, cherry-picked samples, set 2, artefact control for KSHV LANA DNA-binding inhibitor project, dose response (AID 504727); design: species or system Salmonidae
Genome polyprotein = Genome polyprotein (dengue virus type 2, UniProt P29990); test: flavivirus cap methylation enzyme inhibition – biochemical, confirmation dose response, primary screen (AID 588689); type: functional
Genome polyprotein, sequence (P29990 2492-3391 limits assumed): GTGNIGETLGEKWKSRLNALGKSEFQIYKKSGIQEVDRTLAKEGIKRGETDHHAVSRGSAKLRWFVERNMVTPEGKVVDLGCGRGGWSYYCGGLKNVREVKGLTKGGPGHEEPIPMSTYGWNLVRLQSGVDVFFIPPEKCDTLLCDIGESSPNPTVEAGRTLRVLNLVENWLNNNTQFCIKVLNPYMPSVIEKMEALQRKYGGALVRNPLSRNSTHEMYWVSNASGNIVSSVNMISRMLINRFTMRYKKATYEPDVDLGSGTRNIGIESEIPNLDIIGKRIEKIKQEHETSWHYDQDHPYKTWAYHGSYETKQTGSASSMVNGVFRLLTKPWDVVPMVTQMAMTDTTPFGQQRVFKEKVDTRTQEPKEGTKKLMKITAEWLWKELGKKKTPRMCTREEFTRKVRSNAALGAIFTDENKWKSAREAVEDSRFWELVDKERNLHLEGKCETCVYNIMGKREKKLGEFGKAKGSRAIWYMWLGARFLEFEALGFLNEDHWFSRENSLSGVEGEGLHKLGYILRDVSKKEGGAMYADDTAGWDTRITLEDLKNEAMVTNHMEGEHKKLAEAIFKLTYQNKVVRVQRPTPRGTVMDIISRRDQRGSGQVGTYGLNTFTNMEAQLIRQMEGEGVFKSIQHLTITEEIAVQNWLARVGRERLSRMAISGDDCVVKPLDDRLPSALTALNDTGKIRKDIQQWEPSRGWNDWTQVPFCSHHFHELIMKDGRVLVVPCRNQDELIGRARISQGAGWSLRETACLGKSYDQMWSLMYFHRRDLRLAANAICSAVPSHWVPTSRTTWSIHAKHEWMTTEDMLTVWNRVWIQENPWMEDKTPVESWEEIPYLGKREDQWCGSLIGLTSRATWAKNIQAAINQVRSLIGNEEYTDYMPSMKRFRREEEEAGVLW

[11] = molecular target: Melanin-concentrating hormone receptor 1 (Homo sapiens, UniProt Q99705); test: Late-stage fluorescence-based counterscreen for antagonists of the G-protein coupled receptor 7 (GPR7): cell-based dose response assay to identify antagonists of the melanin-concentrating hormone receptor 1 (MCHR1). [Related pubchem assays (depositor defined):AID1861, AID1880, AID1952, AID2148, AID2251, AID2257, AID485339]; type: functional;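 also: stimulated with 30 nM MCH peptide agonist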
Melanin-concentrating hormone receptor 1, sequence (Q99705 whole entry): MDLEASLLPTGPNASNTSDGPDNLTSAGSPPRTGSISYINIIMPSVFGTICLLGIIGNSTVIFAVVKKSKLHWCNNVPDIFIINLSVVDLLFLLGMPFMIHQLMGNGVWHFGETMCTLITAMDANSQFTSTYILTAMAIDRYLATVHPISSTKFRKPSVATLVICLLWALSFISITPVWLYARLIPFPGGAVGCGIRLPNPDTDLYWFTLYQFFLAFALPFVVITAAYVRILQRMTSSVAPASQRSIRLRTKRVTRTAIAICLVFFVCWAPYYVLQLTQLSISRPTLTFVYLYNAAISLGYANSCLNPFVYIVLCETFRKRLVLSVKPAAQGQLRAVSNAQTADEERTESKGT

[12] = molecular target: T5, Neuropeptides B/W receptor type 1 (Homo sapiens, UniProt P48145); test: human NPBW1 receptor blockade, IC50 – cell-based, fluorescence, dose response, late-stage follow-up (AID 463251); type: functional
T5 sequence (P48145 whole entry): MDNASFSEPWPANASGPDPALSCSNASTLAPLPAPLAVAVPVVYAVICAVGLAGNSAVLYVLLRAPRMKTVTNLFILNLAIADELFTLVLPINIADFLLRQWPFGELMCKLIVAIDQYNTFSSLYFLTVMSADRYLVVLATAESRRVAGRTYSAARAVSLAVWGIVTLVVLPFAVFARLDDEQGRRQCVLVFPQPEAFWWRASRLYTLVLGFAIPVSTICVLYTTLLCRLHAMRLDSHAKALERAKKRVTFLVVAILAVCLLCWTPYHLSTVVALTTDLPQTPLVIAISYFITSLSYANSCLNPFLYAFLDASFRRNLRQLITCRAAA

[13] = molecular target: Envelope glycoprotein gp160 (Human immunodeficiency virus 1, UniProt Q6QLK5); test: cell-free HIV fusion peptide-binding blockers – biochemical, uHTS, fluorescence dequenching, […] (AID 1986)
Envelope glycoprotein gp160, sequence (Q6QLK5 whole entry, the tested form may be a part): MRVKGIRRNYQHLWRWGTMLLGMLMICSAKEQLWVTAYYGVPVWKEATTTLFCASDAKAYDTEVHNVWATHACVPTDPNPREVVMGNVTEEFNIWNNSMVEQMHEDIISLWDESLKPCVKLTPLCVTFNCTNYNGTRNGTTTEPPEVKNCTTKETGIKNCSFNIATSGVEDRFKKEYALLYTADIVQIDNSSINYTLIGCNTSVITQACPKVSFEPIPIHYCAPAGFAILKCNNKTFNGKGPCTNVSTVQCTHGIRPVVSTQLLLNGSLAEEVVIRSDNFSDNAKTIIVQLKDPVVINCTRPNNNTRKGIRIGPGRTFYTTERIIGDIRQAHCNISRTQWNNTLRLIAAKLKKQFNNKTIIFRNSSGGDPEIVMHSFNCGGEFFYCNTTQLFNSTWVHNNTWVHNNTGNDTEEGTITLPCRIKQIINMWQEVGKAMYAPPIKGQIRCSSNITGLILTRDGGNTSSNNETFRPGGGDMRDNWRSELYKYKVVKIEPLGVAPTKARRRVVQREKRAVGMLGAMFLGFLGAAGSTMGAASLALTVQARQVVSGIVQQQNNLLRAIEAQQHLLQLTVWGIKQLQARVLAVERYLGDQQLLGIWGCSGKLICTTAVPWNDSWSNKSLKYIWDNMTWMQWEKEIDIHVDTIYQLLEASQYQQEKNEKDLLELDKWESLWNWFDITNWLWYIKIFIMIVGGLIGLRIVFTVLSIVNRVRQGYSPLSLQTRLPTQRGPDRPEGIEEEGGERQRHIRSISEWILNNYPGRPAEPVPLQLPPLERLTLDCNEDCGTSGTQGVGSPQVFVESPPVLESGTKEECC

SMILES: CCOC(=O)c1sc(NC(=O)c2cc3c(s2)CCC(C)C3)nc1C (stereo unspecified)
- IC50 (DLD-1): 19.3 µM (inactive)
- IC50 [1]: > 39.8 µM (not active)

SMILES: CCOC(=O)C1CCCN(S(=O)(=O)c2ccc(F)c(C(=O)Nc3ccc(F)c(F)c3)c2)C1 (stereo unspecified)
- EC50 (T-cell): 0.202 µM (active)
- EC50 (Integrin alpha-L): 19.3 µM (active)

SMILES: Cc1ccc(NC(=O)Cn2sc3ccccc3c2=O)cc1
- IC50 (Hexokinase): 5.18 µM (active)
- IC50 [6]: 15.1 µM (active)
- IC50 [7]: 5.7 µM (active)
- IC50 (Beta Lactamase): 17.7 µM (inactive)

SMILES: Nc1cccc2c(O)cc(S(=O)(=O)O)cc12
- AC50 (ORF 73): 29.7 µM (active)
- IC50 [8]: > 66.6 µM (inactive)
- IC50 [9]: 5.35 µM (active)
- IC50 [10]: 98.6 µM (active)
- AC50 (Salmon testes DNA): 132 µM (active)
- IC50 (Genome polyprotein): 42.7 µM (active)

Now from value to molecule:

- EC50 [2]: 8.51 µM (active)
SMILES: Cc1ccc(C)n1-n1cnc2sc(-c3ccccc3)cc2c1=O

- IC50 [3]: 25.7 µM (active)
- IC50 [4]: 3.85 µM (active)
- IC50 [5]: 45.1 µM (active)
SMILES: CCOC(=O)C1=C(C)N=c2sc(=Cc3ccc(OCC(=O)O)cc3)c(=O)n2C1c1ccc(OC(C)C)cc1 (stereo unspecified)

- IC50 [11]: 2.9 µM (active)
- IC50 [12]: 2.8 µM (active)
SMILES: O=C(C1CCCCN1Cc1cccc(Cl)c1)N1CCN(c2ccc([N+](=O)[O-])cc2)CC1 (stereo unspecified)

- IC50 [13]: 6.31 µM (active)
SMILES: OCCOCCN1CCN(C(c2ccccc2)c2ccc(Cl)cc2)CC1 (stereo unspecified) [HYDROXYZINE PAMOATE]

Source: ChEMBL document CHEMBL1201862, “PubChem BioAssay data set” (2004)
